Measured values taken from US20140079632A1, “ACTIVITY-BASED PROBES FOR THE UROKINASE P[…]” (UNIVERSITEIT ANTWERPEN, priority 2011, published 2014).

Legend:
Type in all cases: biochemical
uPA [1] = molecular target: T1, uPA (Homo sapiens, UniProt P00749); assay: uPA inactivation kinetics from progress curves (kobs versus inhibitor concentration, kapp); conditions: 250 μM substrate, 37° C.
T1 construct: purchased Nodia
Experimental: (§1) Inhibitor stock solutions were prepared in DMSO and stored at −20° C. Because the compounds described in this paper completely inactivate uPA following pseudofirst-order kinetics, the IC50 value is inversely correlated with the second-order rate constant of inactivation. For a simple pseudofirst-order inactivation process, the activity after incubation with inhibitor (vi) varies with the inhibitor concentration (i), as described in the following equation: […]
where vo is the activity in absence of inhibitor, k is the second-order rate constant of inactivation, and t is the time. The inactivation rate constant was determined from the time course of inhibition.
The inhibitor was mixed with the substrate (250 μM final concentration), and the buffer solution with the enzyme was added at the time zero. The inhibitor concentrations were chosen to obtain total inhibition of the enzyme within 20 min. The progress curves show the absorbance of p-nitroanilide produced as a function of time. Initially, no inhibitor is bound to the enzyme, and the tangent to the progress curve (dA/dt) is proportional to the concentration of the free enzyme. The concentration of free enzyme decreases over time due to the kinetics of inhibitor binding, as described above. Progress curves were recorded in pseudofirst-order conditions ([I]0>>[E]0) and with less than 10% conversion of the substrate during the entire time course. In these conditions, dA/dt decreases exponentially with time. The progress curves were fitted with the integrated rate equation to yield a value for kobs, a pseudofirst-order rate constant
At=v0[1−e^−k^obs^t]/kobs+A0
where At=absorbance at time t, A0=absorbance at time zero, and v0=uninhibited initial rate.
The apparent second-order rate constant (kapp) was calculated from the slope of the linear part of the plot of kobs versus the inhibitor concentration ([I]0). In case of competition between the inhibitor and the substrate, kapp is smaller than the “real” second order rate constant k discussed above because a certain fraction of the enzyme is present as an enzyme-substrate complex. kapp depends on the substrate concentration used in the experiment, as described by Lambeir et al.^40 For most final compounds, the kobs versus [I]0 plot was not linear, but could be fitted with a hyperbolic function: kobs=k2[I]0/(K1+[I]0) (two step mechanism). Where K1 is the dissociation constant of the reversible enzyme-inhibitor complex and k2 is the first-order rate constant associated with irreversible modification of the enzyme. A kapp could be calculated as k2/K1.

[2] = molecular target: T2, plasmin (from human plasma) (Homo sapiens, UniProt P00747); assay: Selectivity: plasmin inhibition, substrate Biophen CS-21(66); conditions: 15 min preincubation; Tris buffer pH 7.4; 580 μM substrate
T2 construct: purchased Sigma; host or cells: human plasma
Experimental: (§2) The substrate and human enzyme were obtained from Nodia. The reaction was monitored at 405 nm, and the initial rate was determined between 0 and 0.25 absorbance units in 20 min. […] A 50 mM Tris buffer, pH 8.8, was used. From each inhibitor concentration, 5 μL was added, obtaining a final concentration from 0 to 250 μM in a total volume of 0.2 mL. Activity measurements were routinely performed in duplicate. […] IC50 values were obtained by fitting the data with the four-parameter logistics equation using Grafit 5.
(§3) The IC50 values for plasmin (from human plasma, Sigma), tPA (recombinant, Nodia), thrombin (from human plasma, Sigma), and FXa were determined in the same way as for uPA.
(§4) For tPA and thrombin, Tris buffer, pH 8.3, was used, for FXa, Tris buffer, pH 8.3, for plasmin, Tris buffer, pH 7.4, was used.

uPA [3] = molecular target: T1, uPA; assay: uPA inhibition: in vitro evaluation, IC50 with chromogenic substrate Biophen CS-61(44); conditions: 15 min preincubation at 37° C.; Tris buffer pH 8.8; 250 μM substrate
Experimental: Enzymatic activity was measured at 37° C. in a Spectramax 340 (Molecular Devices) microtiter plate reader using the chromogenic substrate Biophen CS-61(44) (LpyroGlu-Gly L-Arg-p-NA.HCl), with a Km of 80 μM.
The substrate and human enzyme were obtained from Nodia. The reaction was monitored at 405 nm, and the initial rate was determined between 0 and 0.25 absorbance units in 20 min. The reaction mixture contained 250 μM substrate and approximately 1 mU of enzyme in 145 μL of buffer in a final volume of 200 μL. A 50 mM Tris buffer, pH 8.8, was used. From each inhibitor concentration, 5 μL was added, obtaining a final concentration from 0 to 250 μM in a total volume of 0.2 mL. Activity measurements were routinely performed in duplicate. […] IC50 values were obtained by fitting the data with the four-parameter logistics equation using Grafit 5.
where s=slope factor, v=rate, I0=inhibitor concentration, and range=the fitted uninhibited value minus the background. The equation assumes the y falls with increasing x.
as §1

[4] = molecular target: T3, thrombin (from human plasma) (Homo sapiens, UniProt P00734); assay: Selectivity: thrombin inhibition, substrate Biophen CS-21(66); conditions: 15 min preincubation; Tris buffer pH 8.3; 580 μM substrate
T3 construct: thrombin (from human plasma, Sigma); purchased Sigma; host or cells: human plasma
Experimental: as §2, §3, §4

tPA (recombinant) = molecular target: T4, tPA (recombinant) (Homo sapiens, UniProt P00750); assay: Selectivity: tPA inhibition, substrate Biophen CS-05(88); conditions: for IC50: 15 min preincubation, Tris buffer pH 8.3, 1.25 mM substrate
T4 construct: purchased Nodia
Experimental: as §2, §3, §4

FXa = FXa (Homo sapiens, UniProt P00742); assay: Selectivity: FXa inhibition, substrate Biophen CS-11(32); conditions: for IC50: 15 min preincubation, Tris buffer pH 8.3, 522 μM substrate; for FXa % (I) @ 250: at 250 (μM)
[5] = apparent second-order rate constant from slope of kobs versus [I]0, no asterisk
[6] = asterisked: compound showed a two-step mechanism, kapp calculated as k2/K1

T4 sequence (P00750 36-562, species assumed): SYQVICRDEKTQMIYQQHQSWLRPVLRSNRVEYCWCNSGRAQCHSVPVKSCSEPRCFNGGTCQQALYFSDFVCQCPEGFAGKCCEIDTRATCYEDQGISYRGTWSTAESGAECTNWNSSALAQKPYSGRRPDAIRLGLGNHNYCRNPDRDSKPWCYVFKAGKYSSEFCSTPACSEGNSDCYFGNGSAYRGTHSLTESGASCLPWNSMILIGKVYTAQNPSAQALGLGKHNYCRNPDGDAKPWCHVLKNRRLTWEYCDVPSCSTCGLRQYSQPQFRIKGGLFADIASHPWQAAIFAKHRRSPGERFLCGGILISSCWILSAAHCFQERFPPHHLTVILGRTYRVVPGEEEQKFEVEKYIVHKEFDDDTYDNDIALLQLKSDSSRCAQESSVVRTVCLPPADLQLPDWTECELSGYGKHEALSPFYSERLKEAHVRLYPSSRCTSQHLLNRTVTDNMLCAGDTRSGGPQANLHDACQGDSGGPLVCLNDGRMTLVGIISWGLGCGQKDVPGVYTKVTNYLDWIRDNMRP
T2 sequence (P00747 581-810 limits assumed): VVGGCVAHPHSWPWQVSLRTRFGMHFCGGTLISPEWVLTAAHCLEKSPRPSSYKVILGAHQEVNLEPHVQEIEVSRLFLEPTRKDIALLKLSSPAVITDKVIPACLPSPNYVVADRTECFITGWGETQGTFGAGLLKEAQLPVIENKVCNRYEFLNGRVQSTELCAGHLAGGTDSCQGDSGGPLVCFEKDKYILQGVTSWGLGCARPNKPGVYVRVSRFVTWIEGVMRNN
T2 sequence (P00747 97-580 partner limits assumed): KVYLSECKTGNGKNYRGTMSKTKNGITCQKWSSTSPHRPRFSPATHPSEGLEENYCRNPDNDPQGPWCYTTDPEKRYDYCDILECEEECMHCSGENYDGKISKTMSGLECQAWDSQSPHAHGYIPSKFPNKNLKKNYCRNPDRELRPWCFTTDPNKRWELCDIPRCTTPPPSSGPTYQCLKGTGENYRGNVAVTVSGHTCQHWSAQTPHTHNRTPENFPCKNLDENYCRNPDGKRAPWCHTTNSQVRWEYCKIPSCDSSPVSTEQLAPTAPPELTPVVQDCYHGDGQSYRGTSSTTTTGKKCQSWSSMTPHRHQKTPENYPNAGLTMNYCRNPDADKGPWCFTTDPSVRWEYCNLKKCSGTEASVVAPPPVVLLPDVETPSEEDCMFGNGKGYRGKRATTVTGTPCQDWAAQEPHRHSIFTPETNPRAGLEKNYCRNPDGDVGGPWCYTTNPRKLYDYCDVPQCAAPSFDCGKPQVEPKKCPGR
Chain of FXa (P00742 235-488 limits assumed): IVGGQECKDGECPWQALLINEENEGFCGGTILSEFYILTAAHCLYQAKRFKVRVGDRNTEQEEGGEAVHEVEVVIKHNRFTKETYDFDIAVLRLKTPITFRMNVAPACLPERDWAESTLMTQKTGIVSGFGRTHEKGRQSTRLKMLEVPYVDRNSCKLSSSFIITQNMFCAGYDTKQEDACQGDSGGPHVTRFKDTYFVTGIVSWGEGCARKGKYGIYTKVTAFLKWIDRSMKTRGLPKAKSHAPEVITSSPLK
Chain of FXa (P00742 41-179 partner limits assumed): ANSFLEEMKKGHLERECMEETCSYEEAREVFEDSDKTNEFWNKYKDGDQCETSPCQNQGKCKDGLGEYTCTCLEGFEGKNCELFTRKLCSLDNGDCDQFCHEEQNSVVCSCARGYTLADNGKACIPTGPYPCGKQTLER

| Molecule | uPA: kapp (uPA [1]; [5]) [M⁻¹ s⁻¹] | IC50 [2] [µM] | IC50 (uPA [3]) [µM] | IC50 [4] [µM] | IC50 (tPA (recombinant)) [µM] | FXa % @ 2.5 (FXa; at 2.5 (μM)) [% @ 2.5] | IC50 (FXa) [µM] | uPA: kapp (uPA [1]; [6]) | FXa % (I) @ 250 (FXa) | tPA % I @ 250 (tPA (recombinant); at 250 (μM)) [% I @ 250] |
| --- | --- | --- | --- | --- | --- | --- | --- | --- | --- | --- |
| 2-((1E,3E,5E)-5-(1-(6-((2-(4-(3-(((1-(diphenoxyphosphoryl)-2-(4-guanidino phenyl)ethyl)carbamoyl)oxy)propyl)-1H-1,2,3-triazol-1-yl)ethyl)amino)-6-oxohexyl)-3,3-dimethyl indolin-2-ylidene)penta-1,3-dien-1-yl)-1,3,3-trimethyl-3H-indol-1-ium [Final compound 9] | 1600 ± 100 | > 2.5 | 0.0589 ± 0.0017 | > 2.5 |  |  |  |  |  |  |
| CCN(CC)c1ccc2c(-c3ccccc3C(=O)N3CCN(C(=O)CCCCCCCn4cc(COCCOC(=O)NC(Cc5ccc(NC(=N)N)cc5)P(=O)(Oc5ccccc5)Oc5ccccc5)nn4)CC3)c3ccc(=[N+](CC)CC)cc-3oc2c1.O=C(O)C(F)(F)F.[Cl-] (stereo not drawn) [Final compound 1, 2,2,2-trifluoroacetic acid, N-(6-(diethylamino)-9-(2-(4-(8-(4-((2-(((1-(diphenoxyphosphoryl)-2-(4-guanidinophenyl)ethyl)carbamoyl)oxy)ethoxy)methyl)-1H-1,2,3-triazol-1-yl)octanoyl)piperazine-1-carbonyl)phenyl)-3H-xanthen-3-ylidene)-N-ethylethanaminium chloride] | 1700 ± 100 | 5.4 ± 0.6 | 0.017 ± 0.002 | 7.9 ± 1.7 | 7.9 ± 0.3 | 11 |  |  |  |  |
| CCN(CC)c1ccc2c(-c3ccccc3C(=O)N3CCN(C(=O)CCCCCCCn4cc(COCCOCCOC(=O)NC(Cc5ccc(NC(=N)N)cc5)P(=O)(Oc5ccccc5)Oc5ccccc5)nn4)CC3)c3ccc(=[N+](CC)CC)cc-3oc2c1 (stereo not drawn) [Final compound 2, 2,2,2-trifluoroacetic acid, N-(6-(diethylamino)-9-(2-(4-(8-(4-(11-(diphenoxyphosphoryl)-12-(4-guanidinophenyl)-9-oxo-2,5,8-trioxa-10-azadodecyl)-1H-1,2,3-triazol-1-yl)octanoyl)piperazine-1-carbonyl)phenyl)-3H-xanthen-3-ylidene)-N-ethylethanaminium chloride] | 1300 ± 70 | 5.4 ± 1.6 | 0.019 ± 0.003 | 24 ± 21 | 33 ± 13 |  | 176 ± 128 |  |  |  |
| CCN(CC)c1ccc2c(-c3ccccc3C(=O)N3CCN(C(=O)CCCCCCCn4cc(COCCOCCOCCOC(=O)NC(Cc5ccc(NC(=N)N)cc5)P(=O)(Oc5ccccc5)Oc5ccccc5)nn4)CC3)c3ccc(=[N+](CC)CC)cc-3oc2c1 (stereo not drawn) [Final compound 3, 2,2,2-trifluoroacetic acid, N-(6-(diethylamino)-9-(2-(4-(8-(4-(14-(diphenoxyphosphoryl)-15-(4-guanidinophenyl)-12-oxo-2,5,8,11-tetraoxa-13-azapentadecyl)-1H-1,2,3-triazol-1-yl)octanoyl)piperazine-1-carbonyl)phenyl)-3H-xanthen-3-ylidene)-N-ethylethanaminium chloride] | 2600 ± 200 | 11 ± 4 | 0.03 ± 0.006 | 13.8 ± 1.3 | 42 ± 5 |  | 39 ± 22 |  |  |  |
| CCN(CC)c1ccc2c(-c3ccccc3C(=O)N3CCN(C(=O)CCCCCCCn4cc(CCCOC(=O)NC(Cc5ccc(NC(=N)N)cc5)P(=O)(Oc5ccccc5)Oc5ccccc5)nn4)CC3)c3ccc(=[N+](CC)CC)cc-3oc2c1.O=C(O)C(F)(F)F.[Cl-] (stereo not drawn) [Final compound 4, 2,2,2-trifluoroacetic acid, N-(6-(diethylamino)-9-(2-(4-(8-(4-(3-(((1-(diphenoxyphosphoryl)-2-(4-guanidinophenyl)ethyl)carbamoyl)oxy)propyl)-1H-1,2,3-triazol-1-yl)octanoyl)piperazine-1-carbonyl)phenyl)-3H-xanthen-3-ylidene)-N-ethylethanaminium chloride] | 4900 ± 90 | 4.6 ± 2.3 | 0.025 ± 0.007 | 3.5 ± 0.8 | 8 ± 1 |  | 65 ± 14 |  |  |  |
| CCN(CC)c1ccc2c(-c3ccccc3C(=O)N3CCN(C(=O)CCCCCCCn4cc(CCCOC(=O)NC(Cc5ccc(NC(=N)N)cc5)P(=O)(Oc5ccc(NC(C)=O)cc5)Oc5ccc(NC(C)=O)cc5)nn4)CC3)c3ccc(=[N+](CC)CC)cc-3oc2c1.O=C(O)C(F)(F)F.[Cl-] (stereo not drawn) [Final compound 5, 2,2,2-trifluoroacetic acid, N-(9-(2-(4-(8-(4-(3-(((1-(bis(4-acetamidophenoxy)phosphoryl)-2-(4-guanidinophenyl)ethyl)carbamoyl)oxy)propyl)-1H-1,2,3-triazol-1-yl)octanoyl)piperazine-1-carbonyl)phenyl)-6-(diethylamino)-3H-xanthen-3-ylidene)-N-ethylethanaminium chloride] |  | 5.6 ± 1.5 | 0.022 ± 0.002 | 5.2 ± 0.2 | > 62 |  |  | 52 × 10^2 ± 1 × 10^2 * M^−1 s^−1 | 90% @ 250 |  |
| CC1=CC(C)=[N+]2C1=C(CCCCCCCn1cc(CCCOC(=O)NC(Cc3ccc(NC(=N)N)cc3)P(=O)(Oc3ccccc3)Oc3ccccc3)nn1)c1c(C)cc(C)n1[B-]2(F)F.O=C(O)C(F)(F)F (stereo not drawn) [Final compound 6, 10-(7-(4-(3-(((1-(diphenoxyphosphoryl)-2-(4-guanidinophenyl)ethyl)carbamoyl)oxy)propyl)-1-1,2,3-triazol-1-yl)heptyl)-5,5-difluoro-1,3,7,9-tetramethyl-5H-dipyrrolo[1,2-c:2′,1′-f][1,3,2]diazaborinin-4-ium-5-uide 2,2,2-trifluoroacetate] |  | 0.674 ± 0.123 | 0.0467 ± 0.0015 | ~125 |  |  |  | 12.2 × 10^2 ± 0.5 × 10^2 * M^−1 s^−1 | 19% I @ 250 ^ | 19 |
| O=C(O)C(F)(F)F.[N-]=[N+]=NCCOCCOCCOC(=O)NC(Cc1ccc(NC(=N)N)cc1)P(=O)(Oc1ccccc1)Oc1ccccc1 (stereo not drawn) [Intermediate 61, 2-(2-(2-azidoethoxy)ethoxy)ethyl 1-(diphenoxyphosphoryl)-2-(4-guanidinophenyl)ethylcarbamate 2,2,2-trifluoroacetate] |  | 5.7 ± 0.6 | 0.015 ± 0.002 | 13 |  |  |  | 10 × 10^3 ± 4 × 10^3 * M^−1 s^−1 | 51% @ 250 |  |
